The substances below were run on AMV (avian myeloblastosis virus) reverse transcriptase (assay: AMV reverse transcriptase inhibition ([3H]dTTP incorporation)). Conditions: 1 Inhibition unit = activity which inhibits 1 unit of reverse transcriptase activity to 50%.
Format: biochemical
Experimental: 1 unit of AMV (avian myeloblastosis virus) reverse transcriptase was mixed with 50 μl of a mixture (50 mM tris hydrochloride, pH 8.4, 2 mM dithiothreitol, 100 mM KCl, 10 mM MgCl2, 0.1% triton X-100, 50 μg poly (rA)-oligo (dT)/ml, 1.25 μCi [^3 H] dTTP (57 Ci/mmol)) and with various concentration of various sulfated polysaccharides.
The reaction mixtures were incubated and stopped by the addition of 5% trichloroacetic acid. Precipitates were collected on glass fiber filters and their radio activities were determined by a liquid scintilation counter.
1 Inhibition unit is defined as an activity which inhibits 1 unit of reverse transcriptase activity to 50%.

Substance | Inhibition Unit/mg
Chondroitin sulfate | 30 Inhibition Unit/mg
Dermatan sulfate | 210 Inhibition Unit/mg
Heparan sulfate | 50 Inhibition Unit/mg
Heparin | 830 Inhibition Unit/mg
Karatan sulfate | 30 Inhibition Unit/mg
l-Carrageenan | 35810 Inhibition Unit/mg
κ-Carrageenan | 30200 Inhibition Unit/mg
λ-Carrageenan | 68320 Inhibition Unit/mg

From patent publication US5878747A, “Condom coated with acidic polysaccharides” (Fuji Latex Co., Ltd., priority 1993, dated 1999)
